# Molecular target: T1, CFTR (F508del/MF-HBE cells) (Homo sapiens, UniProt P13569, DEL508-508)
# T1 construct: human bronchial epithelial (HBE) cells derived from CF subjects heterozygous for F508del and a minimal function CFTR mutation; endogenous in cells; host or cells: primary human bronchial epithelial cells from CF subjects (F508del/MF genotype)
# Assay: Ussing chamber assay of CFTR-mediated short-circuit currents (identification of potentiator compounds)
# Type: cell-based
# Details: CFTR-mediated ISC in F508del/MF-HBE cells; incubated 18-24 hours at 37° C. with 10 μM (14S)-8-[3-(2-{dispiro[2.0.2.1]heptan-7-yl}ethoxy)-1H-pyrazol-1-yl]-...-2,2,4-trione, 20% human serum
# How it was run: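 F508del/minimal-function HBE cultures grown at air-liquid interface were incubated for 18–24 h at 37 °C with potentiator plus 10 μM corrector, in 20% human serum, and compounds stayed present during recording. Transepithelial ISC was recorded at 0 mV and 37 °C with 30 μM apical amiloride. CFTR current was taken as the peak response to 20 μM forskolin minus the steady state after a 20 μM inhibitor cocktail.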
# T1 sequence (P13569 with tags, fused parts or gaps DEL508-508): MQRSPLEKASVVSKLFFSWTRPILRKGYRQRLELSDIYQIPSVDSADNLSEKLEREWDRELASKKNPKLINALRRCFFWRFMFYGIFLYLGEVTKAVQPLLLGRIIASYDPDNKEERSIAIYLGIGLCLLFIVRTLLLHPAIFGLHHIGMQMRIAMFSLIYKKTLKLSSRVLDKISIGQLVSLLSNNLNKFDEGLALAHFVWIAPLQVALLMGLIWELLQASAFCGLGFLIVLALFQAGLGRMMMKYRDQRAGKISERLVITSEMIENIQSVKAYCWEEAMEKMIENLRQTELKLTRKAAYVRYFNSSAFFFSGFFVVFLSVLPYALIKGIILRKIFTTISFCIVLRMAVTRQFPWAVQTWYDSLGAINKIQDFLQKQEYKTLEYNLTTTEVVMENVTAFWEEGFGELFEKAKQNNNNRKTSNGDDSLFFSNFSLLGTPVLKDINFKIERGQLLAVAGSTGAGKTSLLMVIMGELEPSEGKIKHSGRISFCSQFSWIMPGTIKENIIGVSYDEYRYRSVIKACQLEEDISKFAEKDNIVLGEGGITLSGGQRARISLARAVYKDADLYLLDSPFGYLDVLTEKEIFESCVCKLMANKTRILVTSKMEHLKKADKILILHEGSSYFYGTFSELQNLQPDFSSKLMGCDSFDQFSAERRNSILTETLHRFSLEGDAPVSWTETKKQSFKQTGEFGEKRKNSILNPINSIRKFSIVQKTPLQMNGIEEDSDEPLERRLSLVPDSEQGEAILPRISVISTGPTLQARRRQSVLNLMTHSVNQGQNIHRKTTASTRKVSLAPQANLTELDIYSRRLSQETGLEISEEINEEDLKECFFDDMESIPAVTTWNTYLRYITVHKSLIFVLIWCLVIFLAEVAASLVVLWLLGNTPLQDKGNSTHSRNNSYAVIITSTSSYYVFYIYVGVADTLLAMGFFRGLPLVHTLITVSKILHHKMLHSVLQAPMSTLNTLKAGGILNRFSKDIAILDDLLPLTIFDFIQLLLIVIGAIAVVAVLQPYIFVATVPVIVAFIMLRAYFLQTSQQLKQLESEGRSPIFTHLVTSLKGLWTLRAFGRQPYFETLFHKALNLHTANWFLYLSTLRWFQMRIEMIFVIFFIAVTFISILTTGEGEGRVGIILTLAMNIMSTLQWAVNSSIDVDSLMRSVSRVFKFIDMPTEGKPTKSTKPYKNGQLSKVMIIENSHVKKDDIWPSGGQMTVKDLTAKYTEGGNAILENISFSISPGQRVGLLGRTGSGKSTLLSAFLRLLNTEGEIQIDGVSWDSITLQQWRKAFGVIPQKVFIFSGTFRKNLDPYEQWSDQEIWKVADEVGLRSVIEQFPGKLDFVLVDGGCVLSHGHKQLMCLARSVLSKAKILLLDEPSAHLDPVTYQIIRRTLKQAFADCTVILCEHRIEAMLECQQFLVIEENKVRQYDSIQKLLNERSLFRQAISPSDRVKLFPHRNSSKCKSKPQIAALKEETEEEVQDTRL
row,SMILES,EC50 [nM]
1,"Nc1cc(C(F)(F)F)c2nc1-c1nnc(o1)[C@@](O)(C(F)(F)F)CCCCC[C@@H]1CCCN21 [Compound 4, (6R,12R)-20-amino-6,18-bis(trifluoromethyl)-22-oxa-3,4,16,21-tetraazatetracyclo[15.3.1.12,5.012,16]docosa-1(21),2,4,17,19-pentaen-6-ol]",< 500
2,"Nc1cc(C(F)(F)F)c2nc1-c1nnc(o1)[C@](O)(C(F)(F)F)CCCCC[C@@H]1CCCN21 [Compound 5, (6S,12R)-20-amino-6,18-bis(trifluoromethyl)-22-oxa-3,4,16,21-tetraazatetracyclo[15.3.1.12,5.012,16]docosa-1(21),2,4,17,19-pentaen-6-ol]",> 1000
3,"Nc1cc(C(F)(F)F)c2nc1-c1nnc(o1)C(O)(C(F)(F)F)CCCCC1CCN2C1 (centres unmarked) [Compound 8, 16-amino-10,18-bis(trifluoromethyl)-20-oxa-2,12,13,19-tetraazatetracyclo[13.3.1.12,5.111,14]henicosa-1(19),11,13,15,17-pentaen-10-ol]",< 500
4,"Nc1cc(C(F)(F)F)c2nc1-c1nnc(o1)C(O)(C(F)(F)F)CCCCC1CCN2C1 (centres unmarked) [Compound 9, 16-amino-10,18-bis(trifluoromethyl)-20-oxa-2,12,13,19-tetraazatetracyclo[13.3.1.12,5.111,14]henicosa-1(19),11,13,15,17-pentaen-10-ol]",< 500
5,"Nc1cc(C(F)(F)F)c2nc1-c1nnc(o1)/C(C(F)(F)F)=C\CCCC[C@@H]1CCCN21 [Compound 10, (6E,12R)-6,18-bis(trifluoromethyl)-22-oxa-3,4,16,21-tetraazatetracyclo[15.3.1.12,5.012,16]docosa-1(21),2,4,6,17,19-hexaen-20-amine]",> 1000
6,"CNc1cc(C(F)(F)F)c2nc1-c1nnc(o1)[C@@](O)(C(F)(F)F)CCCCC[C@@H]1CCCN21 [Compound 13, (6R,12R)-20-(methylamino)-6,18-bis(trifluoromethyl)-22-oxa-3,4,16,21-tetraazatetracyclo[15.3.1.12,5.012,16]docosa-1(21),2,4,17,19-pentaen-6-ol]",< 500
7,"CCNc1cc(C(F)(F)F)c2nc1-c1nnc(o1)[C@@](O)(C(F)(F)F)CCCCC[C@@H]1CCCN21 [Compound 14, (6R,12R)-20-(ethylamino)-6,18-bis(trifluoromethyl)-22-oxa-3,4,16,21-tetraazatetracyclo[15.3.1.12,5.012,16]docosa-1(21),2,4,17,19-pentaen-6-ol]",< 500
8,"CNc1cc(C(F)(F)F)c2nc1-c1nnc(o1)[C@](O)(C(F)(F)F)CCCCC[C@@H]1CCCN21 [Compound 15, (6S,12R)-20-(methylamino)-6,18-bis(trifluoromethyl)-22-oxa-3,4,16,21-tetraazatetracyclo[15.3.1.12,5.012,16]docosa-1(21),2,4,17,19-pentaen-6-ol]",> 1000
9,"CCNc1cc(C(F)(F)F)c2nc1-c1nnc(o1)[C@](O)(C(F)(F)F)CCCCC[C@@H]1CCCN21 [Compound 16, (6S,12R)-20-(ethylamino)-6,18-bis(trifluoromethyl)-22-oxa-3,4,16,21-tetraazatetracyclo[15.3.1.12,5.012,16]docosa-1(21),2,4,17,19-pentaen-6-ol]",> 1000
10,"Nc1cc(C(F)(F)F)c2nc1-c1nnc(o1)C(O)(C(F)(F)F)CCCCC1CCCN21 (centres unmarked) [Compound 17, 19-amino-6,17-bis(trifluoromethyl)-21-oxa-3,4,15,20-tetraazatetracyclo[14.3.1.12,5.011,15]henicosa-1(20),2,4,16,18-pentaen-6-ol]",< 500
11,"Nc1cc(C(F)(F)F)c2nc1-c1nnc(o1)C(O)(C(F)(F)F)CCCCC1CCCN21 (centres unmarked) [Compound 18, 19-amino-6,17-bis(trifluoromethyl)-21-oxa-3,4,15,20-tetraazatetracyclo[14.3.1.12,5.011,15]henicosa-1(20),2,4,16,18-pentaen-6-ol]",< 500
12,"Nc1cc(C(F)(F)F)c2nc1-c1nnc(o1)C(=NO)CCCCC[C@@H]1CCCN21 [Compound 31, (12R)-6-(hydroxyimino)-18-(trifluoromethyl)-22-oxa-3,4,16,21-tetraazatetracyclo[15.3.1.12,5.012,16]docosa-1(21),2,4,17,19-pentaen-20-amine]",< 500

# Further lines, results first:
row,EC50 [nM],SMILES
1,< 500,"CC1(C)COCCCC(O)(C(F)(F)F)C2=NN=C(O2)c2nc(c(C(F)(F)F)cc2N)N1 (single isomer, unassigned) [Compound 199, 17-amino-12,12-dimethyl-6,15-bis(trifluoromethyl)-10,19-dioxa-3,4,13,18-tetrazatricyclo[12.3.1.12,5]nonadeca-1(18),2,4,14,16-pentaen-6-ol]"
2,< 500,"Nc1cc(C(F)(F)F)c2nc1-c1nnc(o1)[C@@](O)(C(F)(F)F)CCCCCC(c1ncccn1)N2 (single isomer, unassigned) [Compound 201]"
3,< 500,"CC1(C)Nc2nc(c(N)cc2C(F)(F)F)C2=NN=C(O2)[C@@](O)(C(F)(F)F)CCCCC1O (single isomer, unassigned) [Compound 203]"
4,< 500,"CC1(C)Nc2nc(c(N)cc2C(F)(F)F)C2=NN=C(O2)[C@@](O)(C(F)(F)F)CCCCC1O (single isomer, unassigned) [Compound 204]"
5,< 500,"Nc1cc(C(F)(F)F)c2nc1-c1nnc(o1)[C@@](O)(C(F)(F)F)CCCCCC1(CCOC1)N2 (single isomer, unassigned) [Compound 207]"
6,< 500,"Nc1cc(C(F)(F)F)c2nc1-c1nnc(o1)[C@@](O)(C(F)(F)F)CCCCCC1(CCOC1)N2 (single isomer, unassigned) [Compound 208]"
7,< 500,"Nc1cc(C(F)(F)F)c2nc1-c1nnc(o1)C(=O)CCCCC[C@@H]1CCCN21 [Compound 36, (12R)-20-amino-18-(trifluoromethyl)-22-oxa-3,4,16,21-tetraazatetracyclo[15.3.1.12,5.012,16]docosa-1(21),2,4,17,19-pentaen-6-one]"
8,< 500,"CN1CCCCCCC(=O)C2=NN=C(O2)c2nc1c(C(F)(F)F)cc2N [Compound 58, 17-amino-13-methyl-15-(trifluoromethyl)-19-oxa-3,4,13,18-tetrazatricyclo[12.3.1.12,5]nonadeca-1(18),2,4,14,16-pentaen-6-one]"
9,< 500,"Nc1cc(C(F)(F)F)c2nc1-c1nnc(o1)[C@](O)(C(F)(F)F)c1cc(ccc1F)CCC[C@@H]1CCCN21 [Compound 59, (6S,15R)-23-amino-8-fluoro-6,21-bis(trifluoromethyl)-26-oxa-3,4,19,24-tetraazapentacyclo[18.3.1.12,5.17,11.015,19]hexacosa-1(24),2,4,7(25),8,10,20,22-octaen-6-ol]"
10,< 500,"Nc1cc(C(F)(F)F)c2nc1-c1nnc(o1)[C@@](O)(C(F)(F)F)c1cc(ccc1F)CCC[C@@H]1CCCN21 [Compound 60, (6R,15R)-23-amino-8-fluoro-6,21-bis(trifluoromethyl)-26-oxa-3,4,19,24-tetraazapentacyclo[18.3.1.12,5.17,11.015,19]hexacosa-1(24),2,4,7(25),8,10,20,22-octaen-6-ol]"
11,> 1000,"Nc1cc(C(F)(F)F)c2nc1-c1nnc(o1)-c1c(O)cccc1CCCC[C@@H]1CCCN21 [Compound 134, (16R)-24-amino-22-(trifluoromethyl)-26-oxa-3,4,20,25-tetraazapentacyclo[19.3.1.12,5.06,11.016,20]hexacosa-1(25),2,4,6(11),7,9,21,23-octaen-7-ol]"

# From US12324802B2, “Modulators of cystic fibrosis transmembrane conductance regulator” (Vertex Pharmaceuticals Incorporated, priority 2020, dated 2025)
